Reference: ChEMBL document CHEMBL3885861, “Open TG-GATES”

Species: Rattus norvegicus
Assay: Open TG-GATES - Regimen: Daily Repeat
Type: toxicity, organism-based, Sprague-Dawley
Set-up: regimen Daily Repeat, gender Male, age 6 weeks
Settings: in vivo, po, 100 mg/kg, route gavage, dose level Low; for APTT / Bas / Eos / Fbg / Hb / Ht / Lym / MCH / MCHC / MCV / Mono / Neu / PT / Plat / RBC / Ret / WBC: tissue Blood; for KIDNEY_L / KIDNEY_R / KIDNEY_TOTAL: tissue Kidney; for LIVER: tissue Liver; for A/G / ALP / ALT / AST / BUN / CRE / Ca / Cl / DBIL / GLC / IP / K / LDH / Na / PL / RALB / TBIL / TC / TG / TP / gamma-GTP: tissue Plasma

SMILES: CN/C(=N/CCSCc1nc[nH]c1C)NC#N [CIMETIDINE]
- TERMINAL_BW (72 h, time 3 day): 228.3 g
- APTT (72 h, time 3 day): 18 s
- Bas (72 h, time 3 day): 0.2%
- Eos (72 h, time 3 day): 1%
- Fbg (72 h, time 3 day): 220 mg/dL
- Hb (72 h, time 3 day): 12.8 g/dL
- Ht (72 h, time 3 day): 38.6%
- Lym (72 h, time 3 day): 77.6%
- MCH (72 h, time 3 day): 21.1 pg
- MCHC (72 h, time 3 day): 33.2%
- MCV (72 h, time 3 day): 63.6 fL
- Mono (72 h, time 3 day): 2.6%
- Neu (72 h, time 3 day): 17.4%
- PT (72 h, time 3 day): 12.6 s
- Plat (72 h, time 3 day): 127.7 x10_4/uL
- RBC (72 h, time 3 day): 607 x10_4/ul
- Ret (72 h, time 3 day): 6.9%
- WBC (72 h, time 3 day): 97.9 x10_2/uL
- KIDNEY_L (72 h, time 3 day): 1 g
- KIDNEY_R (72 h, time 3 day): 1 g
- KIDNEY_TOTAL (72 h, time 3 day): 2 g
- LIVER (72 h, time 3 day): 10.7 g
- A/G (72 h, time 3 day): 1.5
- ALP (72 h, time 3 day): 1125.6 IU/L
- ALT (72 h, time 3 day): 37 IU/L
- AST (72 h, time 3 day): 66.4 IU/L
- BUN (72 h, time 3 day): 14.8 mg/dL
- CRE (72 h, time 3 day): 0.4 mg/dL
- Ca (72 h, time 3 day): 10.9 mg/dL
- Cl (72 h, time 3 day): 103.2 meq/L
- DBIL (72 h, time 3 day): 0.1 mg/dL
- GLC (72 h, time 3 day): 195.6 mg/dL
- IP (72 h, time 3 day): 7.1 mg/dL
- K (72 h, time 3 day): 4.2 meq/L
- LDH (72 h, time 3 day): 137.8 IU/L
- Na (72 h, time 3 day): 140.8 meq/L
- PL (72 h, time 3 day): 155.8 mg/dL
- RALB (72 h, time 3 day): 3.4 g/dL
- TBIL (72 h, time 3 day): 0.2 mg/dL
- TC (72 h, time 3 day): 78.6 mg/dL
- TG (72 h, time 3 day): 109.8 mg/dL
- TP (72 h, time 3 day): 5.6 g/dL
- gamma-GTP (72 h, time 3 day): 1.2 IU/L
- TERMINAL_BW ([…], time 7 day): 260 g
- TERMINAL_BW ([…], time 14 day): 308.9 g
- TERMINAL_BW ([…], time 28 day): 402.8 g
- APTT ([…], time 7 day): 18.3 s
- Bas ([…], time 7 day): 0.2%
- Eos ([…], time 7 day): 0.8%
- Fbg ([…], time 7 day): 227.6 mg/dL
- Hb ([…], time 7 day): 13.5 g/dL
- Ht ([…], time 7 day): 40.3%
- Lym ([…], time 7 day): 81.6%
- MCH ([…], time 7 day): 20.8 pg
- MCHC ([…], time 7 day): 33.4%
- MCV ([…], time 7 day): 62.2 fL
- Mono ([…], time 7 day): 2%
- Neu ([…], time 7 day): 14.6%
- PT ([…], time 7 day): 12.2 s
- Plat ([…], time 7 day): 126 x10_4/uL
- RBC ([…], time 7 day): 648.2 x10_4/ul
- Ret ([…], time 7 day): 5.4%
- WBC ([…], time 7 day): 111.1 x10_2/uL
- APTT ([…], time 14 day): 19.3 s
- Bas ([…], time 14 day): 0%
- Eos ([…], time 14 day): 1%
- Fbg ([…], time 14 day): 219.2 mg/dL
- Hb ([…], time 14 day): 14.4 g/dL
- Ht ([…], time 14 day): 43.9%
- Lym ([…], time 14 day): 83.8%
- MCH ([…], time 14 day): 19.5 pg
- MCHC ([…], time 14 day): 32.8%
- MCV ([…], time 14 day): 59.5 fL
- Mono ([…], time 14 day): 2.2%
- Neu ([…], time 14 day): 13%
- PT ([…], time 14 day): 12.7 s
- Plat ([…], time 14 day): 120.2 x10_4/uL
- RBC ([…], time 14 day): 737.8 x10_4/ul
- Ret ([…], time 14 day): 3.9%
- WBC ([…], time 14 day): 93.7 x10_2/uL
- APTT ([…], time 28 day): 19.7 s
- Bas ([…], time 28 day): 0.2%
- Eos ([…], time 28 day): 1.2%
- Fbg ([…], time 28 day): 217.4 mg/dL
- Hb ([…], time 28 day): 14.6 g/dL
- Ht ([…], time 28 day): 42.3%
- Lym ([…], time 28 day): 79.4%
- MCH ([…], time 28 day): 19.2 pg
- MCHC ([…], time 28 day): 34.5%
- MCV ([…], time 28 day): 55.8 fL
- Mono ([…], time 28 day): 2.8%
- Neu ([…], time 28 day): 15.6%
- PT ([…], time 28 day): 12.9 s
- Plat ([…], time 28 day): 114 x10_4/uL
- RBC ([…], time 28 day): 758.2 x10_4/ul
- Ret ([…], time 28 day): 2.8%
- WBC ([…], time 28 day): 137.9 x10_2/uL
- KIDNEY_L ([…], time 7 day): 1.1 g
- KIDNEY_R ([…], time 7 day): 1.1 g
- KIDNEY_TOTAL ([…], time 7 day): 2.2 g
- KIDNEY_L ([…], time 14 day): 1.2 g
- KIDNEY_R ([…], time 14 day): 1.3 g
- KIDNEY_TOTAL ([…], time 14 day): 2.5 g
- KIDNEY_L ([…], time 28 day): 1.4 g
- KIDNEY_R ([…], time 28 day): 1.4 g
- KIDNEY_TOTAL ([…], time 28 day): 2.8 g
- LIVER ([…], time 7 day): 13 g
- LIVER ([…], time 14 day): 13.9 g
- LIVER ([…], time 28 day): 17.6 g
- A/G ([…], time 7 day): 1.5
- ALP ([…], time 7 day): 831 IU/L
- ALT ([…], time 7 day): 34.8 IU/L
- AST ([…], time 7 day): 64.2 IU/L
- BUN ([…], time 7 day): 16.6 mg/dL
- CRE ([…], time 7 day): 0.4 mg/dL
- Ca ([…], time 7 day): 10.7 mg/dL
- Cl ([…], time 7 day): 102 meq/L
- DBIL ([…], time 7 day): 0.096 mg/dL
- GLC ([…], time 7 day): 252.8 mg/dL
- IP ([…], time 7 day): 7.8 mg/dL
- K ([…], time 7 day): 4 meq/L
- LDH ([…], time 7 day): 155 IU/L
- Na ([…], time 7 day): 139.6 meq/L
- PL ([…], time 7 day): 161 mg/dL
- RALB ([…], time 7 day): 3.3 g/dL
- TBIL ([…], time 7 day): 0.1 mg/dL
- TC ([…], time 7 day): 78.8 mg/dL
- TG ([…], time 7 day): 121 mg/dL
- TP ([…], time 7 day): 5.6 g/dL
- gamma-GTP ([…], time 7 day): 1.2 IU/L
- A/G ([…], time 14 day): 1.4
- ALP ([…], time 14 day): 969.6 IU/L
- ALT ([…], time 14 day): 42 IU/L
- AST ([…], time 14 day): 74.8 IU/L
- BUN ([…], time 14 day): 17.6 mg/dL
- CRE ([…], time 14 day): 0.4 mg/dL
- Ca ([…], time 14 day): 10.5 mg/dL
- Cl ([…], time 14 day): 102 meq/L
- DBIL ([…], time 14 day): 0.1 mg/dL
- GLC ([…], time 14 day): 205.2 mg/dL
- IP ([…], time 14 day): 7.1 mg/dL
- K ([…], time 14 day): 4 meq/L
- LDH ([…], time 14 day): 210.8 IU/L
- Na ([…], time 14 day): 141.4 meq/L
- PL ([…], time 14 day): 142.2 mg/dL
- RALB ([…], time 14 day): 3.4 g/dL
- TBIL ([…], time 14 day): 0.2 mg/dL
- TC ([…], time 14 day): 62.8 mg/dL
- TG ([…], time 14 day): 137.8 mg/dL
- TP ([…], time 14 day): 5.9 g/dL
- gamma-GTP ([…], time 14 day): 0.8 IU/L
- A/G ([…], time 28 day): 1.4
- ALP ([…], time 28 day): 672 IU/L
- ALT ([…], time 28 day): 35.4 IU/L
- AST ([…], time 28 day): 66.4 IU/L
- BUN ([…], time 28 day): 18.6 mg/dL
- CRE ([…], time 28 day): 0.6 mg/dL
- Ca ([…], time 28 day): 10.3 mg/dL
- Cl ([…], time 28 day): 101.6 meq/L
- DBIL ([…], time 28 day): 0.1 mg/dL
- GLC ([…], time 28 day): 264.2 mg/dL
- IP ([…], time 28 day): 6.9 mg/dL
- K ([…], time 28 day): 3.5 meq/L
- LDH ([…], time 28 day): 186 IU/L
- Na ([…], time 28 day): 140.4 meq/L
- PL ([…], time 28 day): 150.8 mg/dL
- RALB ([…], time 28 day): 3.5 g/dL
- TBIL ([…], time 28 day): 0.2 mg/dL
- TC ([…], time 28 day): 70.2 mg/dL
- TG ([…], time 28 day): 167.4 mg/dL
- TP ([…], time 28 day): 6 g/dL
- gamma-GTP ([…], time 28 day): 1.2 IU/L
